Among the data in ChEMBL document CHEMBL1143920, “Meclonazepam analogues as potential new antihelmintic agents” (Bioorg Med Chem Lett, 2008) are IC50 values, retold here.

The structures appear in SMILES notation. Values after ≈ are worked out from the molar mass of the structure shown.

The subject of this assay is Schistosoma mansoni. Put plainly: Anthelmintic activity against Schistosoma mansoni. In kind it is functional, organism-based.
For orientation: IC50 means the concentration needed to halve the response being measured. Low readings indicate inhibition by little substance, high ones a need for much substance. With `CC1N=C(c2ccccc2Cl)c2c(/N=N/c3ccc(O)c(C(C)C)c3)cccc2NC1=O` (centres undefined), the IC50 turned out to be 5.79 µg/mL (≈ 13 µM).

The compound `Cc1cc(C)c(O)c(/N=N/c2cccc3c2C(c2ccccc2Cl)=NC(C)C(=O)N3)c1` (centres undefined) showed an IC50 above 10 µg/mL.

Consider `CCc1cc(/N=N/c2cccc3c2C(c2ccccc2Cl)=NC(C)C(=O)N3)ccc1O` (centres undefined), for which the IC50 worked out at 5.79 µg/mL (≈ 13.4 µM).

Regarding `CC1N=C(c2ccccc2Cl)c2cc(N)ccc2NC1=O` (centres undefined), the IC50 was above 10 µg/mL.

`CC1N=C(c2ccccc2Cl)c2c(/N=N\c3ccc(O)c4ccccc34)cccc2NC1=O` (centres undefined) yielded an IC50 of 9.1 µg/mL (≈ 20 µM).

The compound `CC1N=C(c2ccccc2Cl)c2c(/N=N/c3c(Cl)cc(O)cc3Cl)cccc2NC1=O` (centres undefined) came in with a 50% inhibitory concentration (IC50) of 5.79 µg/mL (≈ 12.2 µM).

In turn, `CC1N=C(c2ccccc2Cl)c2c(/N=N/c3c(F)cc(O)cc3F)cccc2NC1=O` (centres undefined) came in with an IC50 of 3.8 µg/mL (≈ 8.62 µM).

Compound `CC1NC(c2ccccc2Cl)c2cc([N+](=O)[O-])ccc2NC1=O` (centres undefined) had an IC50 of 1.3 µg/mL (≈ 3.92 µM). This IC50 is about 2.9-fold lower than that of the compound before.

In the case of `CC1NC(c2ccccc2Cl)c2cc([N+](=O)[O-])ccc2NC1=S` (centres undefined), the IC50 stood at 4.75 µg/mL (≈ 13.7 µM). Against the preceding compound, the IC50 is about 3.7-fold higher.

Consider `CC1N=C(c2ccccc2Cl)c2c(/N=N\c3c(O)ccc4ccccc34)cccc2NC1=O` (centres undefined), for which the IC50 was above 10 µg/mL.

In the case of `CC1N=C(c2ccccc2Cl)c2c(/N=N/c3ccc(O)cc3)cccc2NC1=O` (centres undefined), the IC50 is above 10 µg/mL.

Regarding `CC1N=C(c2ccccc2Cl)c2c(/N=N/c3ccc(O)cc3Br)cccc2NC1=O` (centres undefined), half-maximal inhibition (IC50) was put at 10 µg/mL (≈ 20.7 µM).

In turn, `CC1N=C(c2ccccc2Cl)c2cc([N+](=O)[O-])ccc2NC1=S` (centres undefined) registered an IC50 of 0.35 µg/mL (≈ 1.01 µM).

`C[C@@H]1N=C(c2ccccc2Cl)c2cc([N+](=O)[O-])ccc2NC1=O` [MECLONAZEPAM] showed an IC50 of 0.37 µg/mL (≈ 1.12 µM).
